Earlier results, collected in patent US7217681B2, “Pesticidal composition and method for fungal control” (Syngenta Crop Protection, Inc., priority 2004, dated 2007).

Tested on: fungi
Settings: reported by Burg et al., Ivermectin and Abamectin, 1989

Question: For abamectin, which “anti-bacterial or antifungal activity” value is on record?
Answer: no anti-bacterial or antifungal activity
